Test results published in patent US8846367B2, “Coryneform bacterium transformant and process for producing phenol using the same” (Green Phenol Development Co., Ltd., priority 2010, dated 2014).
Where two headings read alike, the source gives them in different places.

Assays:
[1] = system: Escherichia coli JM109; details: aerobic culture, LB liquid medium, 37° C.
Experimental: (§1) A growth inhibition test in aerobic culture was performed to examine the influence of phenol on Corynebacterium glutamicum, Escherichia coli, and Pseudomonas putida. Pseudomonas putida S12, which was used for the test, is reported to be a solvent-resistant strain. In the report, disclosed is an unparalleled technology using the strain as a host in phenol production.
Escherichia coli JM109 was applied to LB agar medium (1% polypeptone, 0.5% yeast extract, 0.5% NaCl and 1.5% agar) and was left stand in the dark at 37° C. for 15 hours.
An inoculation loop of the Escherichia coli JM109 grown on a plate as above was inoculated into a test tube containing 10 mL of LB liquid medium (1% polypeptone, 0.5% yeast extract, and 0.5% NaCl), and aerobic culture was performed with shaking at 37° C. for 13 hours.
The Escherichia coli JM109 grown in the above conditions was inoculated into 100 mL of LB liquid medium in such a way that the initial bacterial cell concentration would be OD610=0.05, phenol was added at the same time in such a way that the final concentration would be 0, 0.16, or 0.20 mM, and aerobic culture was performed with shaking at 37° C. The growth of bacterial cells was determined by absorbance measurement at OD610.

[2] = system: Pseudomonas putida F1; details: aerobic culture, LB (+glucose) liquid medium, 30° C.
Experimental: as §1
(§2) Pseudomonas putida F1 and S12 were applied to LB agar medium (1% polypeptone, 0.5% yeast extract, 0.5% NaCl and 1.5% agar) and were left stand in the dark at 30° C. for 15 hours.
(§3) An inoculation loop of each of the Pseudomonas putida F1 and S12 grown on a plate as above was inoculated into a test tube containing 10 mL of LB (+glucose) liquid medium (1% polypeptone, 0.5% yeast extract, 0.5% NaCl and 0.4% glucose), and aerobic culture was performed with shaking at 30° C. for 13 hours.
(§4) The Pseudomonas putida F1 and S12 grown in the above conditions were each inoculated into 100 mL of LB (+glucose) liquid medium in such a way that the initial bacterial cell concentration would be OD610=0.05, phenol was added at the same time in such a way that the final concentration would be 0, 0.10, or 0.20 mM, and aerobic culture was performed with shaking at 30° C. The growth of bacterial cells was determined by absorbance measurement at OD610.

[3] = system: Pseudomonas putida S12; details: aerobic culture, LB (+glucose) liquid medium, 30° C.
Experimental: as §1, §2, §3, §4

[4] = system: Corynebacterium glutamicum R; details: aerobic culture, A liquid medium, 33° C.
Experimental: as §1
Corynebacterium glutamicum R was applied to A agar medium (2 g of (NH2)2CO, 7 g of (NH4)2SO4, 0.5 g of KH2PO4, 0.5 g of K2HPO4, 0.5 g of MgSO4.7H2O, 1 mL of 0.06% (w/v) Fe2SO4.7H2O+0.042% (w/v) MnSO4.2H2O, 1 mL of 0.02% (w/v) biotin solution, 2 mL of 0.01% (w/v) thiamin solution, 2 g of yeast extract, 7 g of vitamin assay casamino acid, 40 g of glucose, and 15 g of agar were suspended in 1 L of distilled water) and was left stand in the dark at 33° C. for 15 hours.
An inoculation loop of the Corynebacterium glutamicum R grown on a plate as above was inoculated into a test tube containing 10 mL of A liquid medium (2 g of (NH2)2CO, 7 g of (NH4)2SO4, 0.5 g of KH2PO4, 0.5 g of K2HPO4, 0.5 g of MgSO4.7H2O, 1 mL of 0.06% (w/v) Fe2SO4.7H2O+0.042% (w/v) MnSO4.2H2O, 1 mL of 0.02% (w/v) biotin solution, 2 mL of 0.01% (w/v) thiamin solution, 2 g of yeast extract, 7 g of vitamin assay casamino acid, and 40 g of glucose were suspended in 1 L of distilled water) and was aerobically cultured with shaking at 33° C. for 13 hours.
The Corynebacterium glutamicum R grown in the above conditions was inoculated into 100 mL of A liquid medium in such a way that the initial bacterial cell concentration would be OD610=0.05, phenol was added at the same time in such a way that the final concentration would be 0, 0.16, 0.2, 0.24, or 0.32 mM, and aerobic culture was performed with shaking at 33° C. The growth of bacterial cells was determined by absorbance measurement at OD610.

## Oc1ccccc1 [phenol]
[1]; 0.16% phenol
  proliferation of Escherichia coli (OD610): significantly affected
[1]; 0.20% phenol
  proliferation of Escherichia coli (OD610): completely inhibited
[2]; 0.10% phenol
  proliferation of Pseudomonas putida F1 (OD610): significantly affected
[2]; 0.20% phenol
  proliferation of Pseudomonas putida F1 (OD610): completely inhibited
[3]; 0.10% phenol
  proliferation of Pseudomonas putida S12 (OD610): significantly affected
[3]; 0.20% phenol
  proliferation of Pseudomonas putida S12 (OD610): completely inhibited
[4]; 0.16% phenol
  proliferation of Corynebacterium glutamicum (OD610): hardly affected
[4]; 0.20% phenol
  proliferation of Corynebacterium glutamicum (OD610): favorable growth
[4]; 0.24% phenol
  proliferation of Corynebacterium glutamicum (OD610): able to proliferate
